Assay results reported in PubChem BioAssay (NCI).
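Method: 48-hour compound exposure of cells in 96-well plates, five concentrations, linear interpolation of endpoints. GI50 = concentration required for 50% inhibition of growth. TGI: total growth inhibition.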

Experiments:
Assay in all cases: growth of human tumour cells (NCI), 48 h
[1] = tested on: SK-OV-3 ovarian
[2] = tested on: HL-60(TB) leukemia
[3] = tested on: NCI/ADR-RES ovarian
[4] = tested on: EKVX NSCLC
[5] = tested on: K-562 leukemia
[6] = tested on: TK-10 renal
[7] = tested on: HT29 colon
[8] = tested on: 786-0 renal
[9] = tested on: UACC-257 melanoma
[10] = tested on: HCC-2998 colon
[11] = tested on: MDA-MB-435
[12] = tested on: A549 NSCLC
[13] = tested on: NCI-H522 lung
[14] = tested on: COLO 205 colon
[15] = tested on: DU-145 prostate
[16] = tested on: M14 melanoma
[17] = tested on: HOP-92 NSCLC
[18] = tested on: PC-3 prostate
[19] = tested on: NCI-H226 lung
[20] = tested on: OVCAR-4 ovarian
[21] = tested on: SNB-19 CNS
[22] = tested on: SK-MEL-28 melanoma
[23] = tested on: MOLT-4 leukemia
[24] = tested on: SK-MEL-5 melanoma
[25] = tested on: SW-620 colon
[26] = tested on: T-47D breast
[27] = tested on: OVCAR-8 ovarian
[28] = tested on: IGROV1 ovarian
[29] = tested on: HCT-15 colon
[30] = tested on: U251 CNS
[31] = tested on: HCT-116 colon
[32] = tested on: UACC-62 melanoma
[33] = tested on: OVCAR-5 ovarian
[34] = tested on: MALME-3M melanoma
[35] = tested on: RXF 393 renal
[36] = tested on: CAKI-1 renal
[37] = tested on: SNB-75 CNS
[38] = tested on: NCI-H23 lung
[39] = tested on: SF-268 CNS
[40] = tested on: SK-MEL-2 melanoma
[41] = tested on: LOX IMVI melanoma
[42] = tested on: SR leukemia
[43] = tested on: HOP-62 NSCLC
[44] = tested on: SF-295 CNS
[45] = tested on: BT-549 breast
[46] = tested on: RPMI-8226 leukemia
[47] = tested on: UO-31 renal
[48] = tested on: A498 renal
[49] = tested on: HS 578T breast
[50] = tested on: KM12 colon
[51] = tested on: NCI-H460 lung
[52] = tested on: SF-539 CNS
[53] = tested on: MCF7 breast
[54] = tested on: CCRF-CEM leukemia
[55] = tested on: OVCAR-3 ovarian
[56] = tested on: SN12C renal
[57] = tested on: MDA-MB-231 breast
[58] = tested on: ACHN renal

CCO/C=N/C1=C(C#N)C(c2ccc(Cl)cc2)c2sc3c(C)cccc3c2O1 (stereo unspecified)
GI50 [1]: 2700 nM | TGI [1]: 22100 nM | GI50 [2]: 329 nM | TGI [2]: 13900 nM | GI50 [3]: 438 nM | TGI [3]: 13400 nM | GI50 [4]: 604 nM | TGI [4]: 15600 nM | GI50 [5]: 379 nM | TGI [5]: > 51300 nM | GI50 [6]: 9740 nM | TGI [6]: 30000 nM | GI50 [7]: 967 nM | TGI [7]: 11900 nM | GI50 [8]: 976 nM | TGI [8]: 13900 nM | GI50 [9]: 12100 nM | TGI [9]: 32100 nM | GI50 [10]: 1510 nM | TGI [10]: 8520 nM | GI50 [11]: 214 nM | TGI [11]: 516 nM | GI50 [12]: 749 nM | TGI [12]: 15100 nM | GI50 [13]: 398 nM | TGI [13]: 5050 nM | GI50 [14]: 1990 nM | TGI [14]: 6930 nM | GI50 [15]: 758 nM | TGI [15]: 14400 nM | GI50 [16]: 528 nM | TGI [16]: 11900 nM | GI50 [17]: 188 nM | TGI [17]: 3760 nM | GI50 [18]: 377 nM | TGI [18]: 12100 nM | GI50 [19]: 1150 nM | TGI [19]: 15400 nM | GI50 [20]: 1350 nM | TGI [20]: 19900 nM | GI50 [21]: 566 nM | TGI [21]: 16300 nM | GI50 [22]: 2480 nM | TGI [22]: 22400 nM | GI50 [23]: 808 nM | TGI [23]: > 88900 nM | GI50 [24]: 845 nM | TGI [24]: 10400 nM | GI50 [25]: 451 nM | TGI [25]: 15800 nM | GI50 [26]: 462 nM | TGI [26]: 29200 nM | GI50 [27]: 1190 nM | TGI [27]: 15900 nM | GI50 [28]: 517 nM | TGI [28]: 15000 nM | GI50 [29]: 423 nM | TGI [29]: 10200 nM | GI50 [30]: 609 nM | TGI [30]: 12700 nM | GI50 [31]: 448 nM | TGI [31]: 11100 nM | GI50 [32]: 447 nM | TGI [32]: 14800 nM | GI50 [33]: 2370 nM | TGI [33]: 15500 nM | GI50 [34]: 689 nM | TGI [34]: 23400 nM | GI50 [35]: 275 nM | TGI [35]: 1330 nM | GI50 [36]: 532 nM | TGI [36]: 18500 nM | GI50 [37]: 234 nM | TGI [37]: 1410 nM | GI50 [38]: 1330 nM | TGI [38]: 19200 nM | GI50 [39]: 1490 nM | TGI [39]: 19400 nM | GI50 [40]: 1060 nM | TGI [40]: 20800 nM | GI50 [41]: 611 nM | TGI [41]: 13000 nM | GI50 [42]: 542 nM | TGI [42]: > 47200 nM | GI50 [43]: 574 nM | TGI [43]: 18600 nM | GI50 [44]: 288 nM | TGI [44]: 2470 nM | GI50 [45]: 1830 nM | TGI [45]: 11400 nM | GI50 [46]: 408 nM | TGI [46]: 15800 nM | GI50 [47]: 562 nM | TGI [47]: 17100 nM | GI50 [48]: 315 nM | TGI [48]: 1480 nM | GI50 [49]: 414 nM | TGI [49]: 11500 nM | GI50 [50]: 551 nM | TGI [50]: 15700 nM | GI50 [51]: 406 nM | TGI [51]: 7660 nM | GI50 [52]: 379 nM | TGI [52]: 1810 nM | GI50 [53]: 327 nM | TGI [53]: 11600 nM | GI50 [54]: 371 nM | TGI [54]: 19400 nM | GI50 [55]: 409 nM | TGI [55]: 7850 nM | GI50 [56]: 865 nM | TGI [56]: 12600 nM | GI50 [57]: 2190 nM | TGI [57]: 15400 nM | GI50 [58]: 631 nM | TGI [58]: 15100 nM
